Legend:
[1] = Liquid; for mass density: Vibrating tube method; for vapor or sublimation pressure: Ebulliometric method (Recirculating still)
[2] = xn = mol fraction of the nth substance listed; settings: Liquid, Vibrating tube method, x2 = 0

CC12CCC(CC1)C(C)(C)O2 [1,3,3-trimethyl-2-oxabicyclo[2.2.2]octane]
mass density [kg/m3], [1]
Settings	20000 kPa	25000 kPa	30000 kPa	35000 kPa	40000 kPa
283.15 K	945.9	949.1	952	954.9	957.6
298.15 K	934.1	937.4	940.5	943.4	946.4
313.15 K	922.3	925.8	929.1	932.4	935.5
328.15 K	910.6	914.3	917.9	921.3	924.7

[1]
Settings	vapor or sublimation pressure [kPa]
326.65 K	1.33
341.55 K	2.67
357.25 K	5.33
363.45 K	6.67
381.45 K	13.33
392.75 K	20
401.75 K	26.66
408.65 K	33.33
414.65 K	40
419.95 K	46.66
424.65 K	53.33
428.85 K	60
432.75 K	66.66
436.35 K	73.33
439.75 K	79.99
442.85 K	86.66
445.85 K	93.33
448.65 K	99.61
449.15 K	101.33

CCCO [propan-1-ol]
mass density [kg/m3], [1]
Settings	20000 kPa	25000 kPa	30000 kPa	35000 kPa	40000 kPa
283.15 K	825.1	828.4	831.5	834.5	837.4
298.15 K	814.2	817.6	820.9	824	827.1
313.15 K	803.1	806.9	810.4	813.7	817
328.15 K	792	795.8	799.6	803.1	806.6

[1]
Settings	vapor or sublimation pressure [kPa]
319.65 K	10
327.25 K	15
332.95 K	20
337.45 K	25
341.25 K	30
343.55 K	33.33
344.65 K	35
347.65 K	40
350.35 K	45
352.75 K	50
355.05 K	55
357.05 K	60
359.05 K	65
359.65 K	66.66
360.85 K	70
362.55 K	75
364.15 K	80
365.65 K	85
367.15 K	90
370.05 K	101.33

CCCO [propan-1-ol] + CC12CCC(CC1)C(C)(C)O2
mass density [kg/m3], [2]
Settings	20000 kPa	25000 kPa	30000 kPa	35000 kPa	40000 kPa
283.15 K	825.1	828.4	831.5	834.5	837.4
298.15 K	814.2	817.6	820.9	824	827.1
313.15 K	803.1	806.9	810.4	813.7	817
328.15 K	792	795.8	799.6	803.1	806.6
